Measurements published in PubChem BioAssay (NCI).
Several values for one entry are separate records, joined by “and”; a condition that tells them apart may be missing. Equal values may be shown once.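 Interpolation was linear, between the two tested concentrations surrounding the appropriate level; five concentrations were tested over 48 hours in 96-well plates. Here, GI50 denotes the concentration required for 50% inhibition of growth. The concentration for full growth arrest is given as TGI.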

Tests used:
Experiment in all cases: NCI tumour cell line growth inhibition, 48 h
[1] = test system: RXF-631 renal
[2] = test system: LXFL 529 NSCLC
[3] = test system: DMS 273 small cell lung
[4] = test system: DLD-1 colon
[5] = test system: SNB-78 CNS
[6] = test system: HOP-18 NSCLC
[7] = test system: T-47D breast
[8] = test system: MDA-MB-231 breast
[9] = test system: MDA-N
[10] = test system: P388/ADR leukemia
[11] = test system: SN12K1 renal
[12] = test system: P388 leukemia

N#CC(C#N)=C1SCC(=O)CS1
TGI [1]: > 100 µM
TGI [2]: > 100 µM
TGI [3]: > 100 µM
TGI [4]: > 100 µM
TGI [5]: > 100 µM

O=C(/C=C1/NC(=O)CS1)Nc1ccccc1
TGI [1]: > 100 µM
TGI [2]: > 100 µM
TGI [6]: > 100 µM
TGI [3]: > 100 µM
TGI [4]: > 100 µM
TGI [5]: > 100 µM

O=P1(O)c2ccccc2Nc2cc(C(F)(F)F)ccc21
TGI [7]: > 100 µM
TGI [2]: > 100 µM
TGI [8]: > 100 µM
TGI [6]: > 100 µM
TGI [3]: > 100 µM
TGI [4]: > 100 µM
TGI [9]: > 100 µM
TGI [5]: > 100 µM

CNc1nc(N(C)C)nc(N(C)C)n1
TGI [7]: 3720 µM
TGI [2]: > 100 µM
TGI [10]: 1800 µM
TGI [11]: 2620 µM
TGI [8]: 2640 µM
GI50 [6]: > 100 µM and 1130 µM
TGI [6]: > 100 µM and 3780 µM
GI50 [3]: > 100 µM and 1230 µM
TGI [3]: > 100 µM and 2740 µM
GI50 [4]: > 100 µM and 822 µM
TGI [4]: > 100 µM and 4160 µM
TGI [9]: 2850 µM
GI50 [5]: > 100 µM and 1780 µM
TGI [5]: > 100 µM and 5300 µM
TGI [12]: 1530 µM

COc1cc([C@@H]2OC(=O)C3C2C(=O)O[C@H]3c2cc(OC)c(OC)c(OC)c2)cc(OC)c1OC (stereo partly drawn)
TGI [1]: > 100 µM
TGI [6]: > 100 µM
TGI [3]: > 100 µM
TGI [5]: > 100 µM

C[CH2][Sn]([CH2]C)([O]C(=O)c1cccc(F)c1)[O][Sn]([CH2]C)([CH2]C)[O]C(=O)c1cccc(F)c1
GI50 [2]: 10.4 µM
TGI [2]: 22.4 µM
GI50 [6]: 18.5 µM
TGI [6]: 32.5 µM
GI50 [3]: 32 µM
TGI [3]: > 100 µM
GI50 [4]: 12.5 µM
TGI [4]: 26.1 µM
GI50 [5]: 16.3 µM
TGI [5]: 35.1 µM

Clc1ccc(SCCCCCCCCCCSc2ccc(Cl)cc2)cc1
TGI [2]: > 100 µM
TGI [6]: > 100 µM
TGI [3]: > 100 µM
TGI [4]: > 100 µM
TGI [5]: > 100 µM

CC1(C)C2C/C(=C\c3ccccc3)C(=O)C1C2 (stereo not drawn)
TGI [1]: > 100 µM
TGI [2]: > 100 µM
TGI [3]: > 100 µM
TGI [4]: > 100 µM
TGI [5]: > 100 µM

COc1cc(C(=O)CC2(O)C(=O)Nc3c(Cl)cc(Cl)cc32)ccc1O (stereo not drawn)
TGI [1]: > 100 µM
TGI [2]: > 100 µM
TGI [6]: > 100 µM
TGI [3]: > 100 µM
TGI [4]: > 100 µM
TGI [5]: > 100 µM

COc1ccc2c(c1)CC1c3c(cc4c(c3-2)OCO4)CCN1C (stereo not drawn)
TGI [1]: 73.6 µM
TGI [2]: > 100 µM
TGI [6]: 82.7 µM
TGI [3]: > 100 µM
TGI [4]: > 100 µM
TGI [5]: > 100 µM

Cc1ccc(/C=C2\CCCC\C2=N\O)cc1
TGI [2]: > 100 µM
TGI [6]: > 100 µM
TGI [3]: > 100 µM
TGI [4]: > 100 µM
TGI [5]: > 100 µM

CCOC(=O)NC(=O)c1cn(CCN2CCN(C(=O)NCCCCCCNC(=O)N3CCN(CCn4cc(C(=O)NC(=O)OCC)c(=O)n(CCN(CC)CC)c4=O)CC3)CC2)c(=O)n(CCC(CC)CC)c1=O
TGI [2]: > 100 µM
TGI [6]: > 100 µM
TGI [3]: > 100 µM
TGI [4]: > 100 µM
TGI [5]: > 100 µM

C=CCN=C1NC(=O)C(CC(=O)Nc2ccc(C)cc2)S1 (stereo not drawn)
TGI [1]: > 100 µM
TGI [2]: > 100 µM
TGI [6]: > 100 µM
TGI [3]: > 100 µM
TGI [4]: > 100 µM

CC12CC3CC(C1)CC(N=[N+]=[N-])(C3)C2
TGI [1]: > 100 µM
TGI [2]: > 100 µM
TGI [6]: > 100 µM
TGI [3]: > 100 µM
TGI [4]: > 100 µM
TGI [5]: > 100 µM

N#CN1CCC=C(c2cc3ccccc3[nH]2)C1
TGI [1]: > 448 µM
TGI [2]: > 448 µM
TGI [6]: > 448 µM
TGI [3]: > 448 µM
TGI [4]: > 448 µM

COc1cc(/C=C2/C(=O)NC(Cc3cc(OC)c(OC)c(C)c3OC)C(=O)N2Cc2ccccc2)c(OC)c(C)c1OC (stereo not drawn)
TGI [1]: > 100 µM
TGI [2]: > 100 µM
TGI [6]: 80.4 µM
TGI [3]: > 100 µM
TGI [4]: > 100 µM

COC1=CC(=O)[C@]2(C)[C@H](C1=O)C(C)[C@H]2c1ccccc1 (stereo partly drawn)
TGI [1]: > 100 µM
TGI [2]: > 100 µM
TGI [3]: > 100 µM
TGI [4]: > 100 µM
TGI [5]: > 100 µM

[C-]#[N+]C(C)(C)C[C@H]1CC(C)C2CCC(C)C3([N+]#[C-])CCC(=C)C1[C@H]23 (stereo partly drawn)
TGI [1]: 6.58 µM
TGI [2]: 23.4 µM
TGI [6]: 14.4 µM
TGI [3]: 2.55 µM
TGI [4]: 9.29 µM
TGI [5]: 12 µM

CS/C(c1ccccc1)=[N+](/C)[O-]
TGI [1]: > 100 µM
TGI [2]: > 100 µM
TGI [6]: > 100 µM
TGI [4]: > 100 µM
TGI [5]: > 100 µM

Cc1ccc(N2C(=O)/C(=C/c3ccc(N(CCC#N)CCC#N)cc3C)N=C2c2cc([N+](=O)[O-])ccc2Cl)cc1
TGI [1]: > 100 µM
TGI [2]: > 100 µM
TGI [6]: > 100 µM
TGI [3]: > 100 µM
TGI [4]: > 100 µM
TGI [5]: > 100 µM

O=C1C[C@@H]2CCCC[C@@H]2C12SCCS2
TGI [1]: > 100 µM
TGI [2]: > 100 µM
TGI [3]: > 100 µM
TGI [4]: > 100 µM
TGI [5]: > 100 µM

Cc1cccc2c1C/C(=C1\CCc3c(C)cccc31)C2=O
TGI [1]: > 100 µM
TGI [2]: > 100 µM
TGI [6]: > 100 µM
TGI [3]: > 100 µM
TGI [4]: > 100 µM
